This is an account of results in US11446287B2, “Compounds and methods for EP300 or CBP modulation and indications therefor” (Opna Immuno-Oncology SA, priority 2019, dated 2022).

Molecules are shown by their SMILES.

This assay deals with T1, Recombinant human EP300 containing the bromodomain (EP300-BD (1040-1161)) (Homo sapiens, UniProt Q09472).
T1 construct: Recombinant human EP300 bromodomain (EP300-BD (1040-1161)); made in house; host or cells: E. coli BL21-CodonPlus (DE3), modified pET vector
T1 sequence (Q09472 1040-1161): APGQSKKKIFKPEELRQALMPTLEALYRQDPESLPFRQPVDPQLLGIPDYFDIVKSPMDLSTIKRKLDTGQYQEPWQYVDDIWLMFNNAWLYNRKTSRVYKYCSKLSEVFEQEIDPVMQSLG
The assay is described as follows: EP300 Alphascreen binding assay. On the procedure:
EP300 Alphascreen Binding Assay
Binding of compounds of Formula (I) with EP300 was assessed using Alphascreen™ binding assay. The inhibition of the interaction between the EP300 bromodomain and its acetylated target protein was measured quantitatively using recombinant EP300 protein, an acetylated Histone 3 peptide and AlphaScreen™ technology. In absence of inhibition of the EP300 protein bound to AlphaScreen™ nickel chelate acceptor beads can interact with the acetylated Histone 3 peptide which is immobilized by the AlphaScreen™ Streptavidin coated beads. This interaction brings donor and acceptor beads in proximity. The close proximity allows the singlet oxygen produced by laser excitation of the donor beads to reach the acceptor beads and generate a luminescence signal. EP300 inhibitors result in a decrease in the proximity signal through an inhibition of the EP300—acetylated peptide interaction.
Recombinant human EP300 containing the bromodomain (EP300-BD (1040-1161)) was prepared and purified as described in protein expression and purification session. The peptide is human Histone H345-64K56Ac-Biotin (Anaspec CA, USA).
Protocol for EP300 assay: All components were prepared in buffer composed of 50 mM HEPES pH 7.5, 50 mM NaCl, 0.01% BSA, 0.01% Triton X-100, 2 mM DTT. Test compounds and DMSO vehicle were diluted 1:50 in buffer and a 4 μL volume is transferred to an Alphaplate. 5.5 μL of EP300 protein and 5.5 μL of peptide were added to wells containing 4 μL of various concentrations of test compounds of Formula (I) or DMSO vehicle in an Alphaplate (PerkinElmer GA, USA) and incubated for 1 hour at room temperature. 5 μL donor and acceptor bead mixture was then added with final concentrations of 7.5 μg/ml. 60 minutes after bead addition, Alpha signal is read on the Envision spectrometer (λEx 680 nm, λEm 520-620 nm). Final concentrations of bromodomain proteins and peptide are as shown below.
All data were normalized to the mean of 16 high and 16 low control wells on each plate. A four parameter curve fit of the following formula was then applied: Y=A+((B−A)/(1+((C/x)^D))) Where ‘A’ is the minimum, ‘B’ is the maximum, ‘C’ is the IC50 and ‘D’ is the Hill slope. Protein Expression and Purification
Recombinant human EP300 bromodomain (EP300-BD (1040-1161)) was expressed in E. coli cells (in a modified pET vector) with an N-terminal six-His tag and purified using a combination of both IMAC (Ni-affinity) and size exclusion chromatography steps.
Recombinant EP300 protein was expressed using the E. coli strain BL21-CodonPlus (DE3) (Agilent Technologies CA, USA). Cells were grown in Terrific Broth (TB) media to an OD600 of 0.7 at 37° C. at which temperature was reduced to 18° C., protein was induced with 1.0 mM isopropyl-β-D-thiogalactopyranoside (“IPTG”) for 20 hours and harvested by centrifugation at 8500×g for 20 minutes. Cells were re-suspended in 0.1M K2PO4 pH 8.0, 250 mM NaCl, 10% Glycerol, 0.75% NP-40, 25 mM Imidazole, with 0.2 mg/ml Lysozyme, 0.2 mM phenylmethanesulfonyl fluoride (“PMSF”), 25 μg/ml DNase I, incubated on ice for 30 minutes and lysed with a cell disruptor (MicroFluidics MA, USA). The lysate was clarified by centrifugation at 20,000×g for 1 hour. The protein was captured with Ni-NTA resin (Life Technologies, USA). Contaminating proteins were washed off with 50 mM HEPES pH 7.5, 500 mM NaCl, and 5% Glycerol. Following 3× wash steps, protein was eluted step wise using 10, 25, 50, 100, 150, and 250 mM Imidazole in 50 mM HEPES pH 7.5, 500 mM NaCl, and 5% glycerol. The protein was further purified using a size exclusion column (26/600 Superdex 200, GE Biosciences NJ, USA) in 10 mM HEPES pH 7.5, […].

The IC50 is the concentration that gives 50% inhibition.

For `COc1cc(C(=O)O)cc(OCc2ccccc2)c1-c1cn([C@@H](C)c2ccccn2)c2ncc(-c3c(C)noc3C)cc12` [P-0135, (S)-3-(benzyloxy)-4-(5-(3,5-dimethylisoxazol-4-yl)-1-(1-(pyridin-2-yl)ethyl)-1H-pyrrolo[2,3-b]pyridin-3-yl)-5-methoxybenzoic acid], the half-maximal inhibitory concentration (IC50) was 0.1 to 1000 nM.

Consider `COc1c(C(=O)O)cccc1-c1cn(C(C)c2ccccc2)c2cc(-c3c(C)noc3C)cnc12` (stereo not shown) [P-0136, 3-(6-(3,5-dimethylisoxazol-4-yl)-1-(1-phenylethyl)-1H-pyrrolo[3,2-b]pyridin-3-yl)-2-methoxybenzoic acid], for which the IC50 was in the range of 0.1 to 1000 nM.

Take `Cc1noc(C)c1-c1cnc2c(c1)c(-c1ccc(C(=O)O)cc1OC1COC1)cn2[C@@H](C)c1ccccn1` [P-0137, (S)-4-(5-(3,5-dimethylisoxazol-4-yl)-1-(1-(pyridin-2-yl)ethyl)-1H-pyrrolo[2,3-b]pyridin-3-yl)-3-(oxetan-3-yloxy)benzoic acid]: the IC50 lay in the range of 0.1 to 1000 nM.

Turning to `Cc1noc(C)c1-c1cnc2c(c1)c(-c1ccc(C(=O)O)cc1OCC1CC1)cn2[C@@H](C)c1ccccn1` [P-0138, (S)-3-(cyclopropylmethoxy)-4-(5-(3,5-dimethylisoxazol-4-yl)-1-(1-(pyridin-2-yl)ethyl)-1H-pyrrolo[2,3-b]pyridin-3-yl)benzoic acid], the IC50 is 0.1 to 1000 nM.

In the case of `Cc1noc(C)c1-c1cnc2c(c1)c(-c1ccc(C(=O)O)cc1OCc1ccccc1)cn2[C@@H](C)c1ccccn1` [P-0139, (S)-3-(benzyloxy)-4-(5-(3,5-dimethylisoxazol-4-yl)-1-(1-(pyridin-2-yl)ethyl)-1H-pyrrolo[2,3-b]pyridin-3-yl)benzoic acid], the IC50 was in the range of 0.1 to 1000 nM.

For `COc1ccc(C(=O)O)cc1-c1cn(C(C)c2ccccc2)c2cc(-c3c(C)noc3C)cnc12` (stereo not shown) [P-0140, 3-(6-(3,5-dimethylisoxazol-4-yl)-1-(1-phenylethyl)-1H-pyrrolo[3,2-b]pyridin-3-yl)-4-methoxybenzoic acid], the IC50 fell in the range of 0.1 to 1000 nM.

As for `Cc1noc(C)c1-c1cnc2c(-c3cc(C(=O)O)ccc3Cl)cn(C(C)c3ccccc3)c2c1` (stereo not shown) [P-0141, 4-chloro-3-(6-(3,5-dimethylisoxazol-4-yl)-1-(1-phenylethyl)-1H-pyrrolo[3,2-b]pyridin-3-yl)benzoic acid], the IC50 fell in the range of 0.1 to 1000 nM.

For `COc1cc(C(=O)O)ccc1-c1cn([C@@H](C)c2ccccn2)c2cc(-c3c(C)noc3C)cnc12` [P-0142, (S)-4-(6-(3,5-dimethylisoxazol-4-yl)-1-(1-(pyridin-2-yl)ethyl)-1H-pyrrolo[3,2-b]pyridin-3-yl)-3-methoxybenzoic acid], the half-maximal inhibitory concentration (IC50) lay in the range of 0.1 to 1000 nM.

As for `Cc1noc(C)c1-c1cnc2c(CC3CCC3)cn(-c3ccc(O)nc3)c2c1` [P-0143, 5-(3-(cyclobutylmethyl)-6-(3,5-dimethylisoxazol-4-yl)-1H-pyrrolo[3,2-b]pyridin-1-yl)pyridin-2-ol], the IC50 is 1000 to 8000 nM.

In the case of `COc1cc(C(=O)O)cc(O)c1-c1cn([C@@H](C)c2ccccn2)c2ncc(-c3c(C)noc3C)cc12` [P-0144, (S)-4-(5-(3,5-dimethylisoxazol-4-yl)-1-(1-(pyridin-2-yl)ethyl)-1H-pyrrolo[2,3-b]pyridin-3-yl)-3-hydroxy-5-methoxybenzoic acid], the IC50 is 0.1 to 1000 nM.

`Cc1noc(C)c1-c1cnc2c(c1)c(-c1ccnc(O)c1)cn2[C@@H](C)c1ccccn1` [P-0145, (S)-4-(5-(3,5-dimethylisoxazol-4-yl)-1-(1-(pyridin-2-yl)ethyl)-1H-pyrrolo[2,3-b]pyridin-3-yl)pyridin-2-ol]: the half-inhibitory concentration (IC50) lay in the range of 1000 to 8000 nM.

Consider `COc1cc(C(=O)O)cc(OC)c1-c1cn([C@@H](C)c2ccccn2)c2cc(-c3c(C)noc3C)cnc12` [P-0146, (S)-4-(6-(3,5-dimethylisoxazol-4-yl)-1-(1-(pyridin-2-yl)ethyl)-1H-pyrrolo[3,2-b]pyridin-3-yl)-3,5-dimethoxybenzoic acid], for which the half-maximal inhibitory concentration (IC50) fell in the range of 1000 to 8000 nM.

As to `CCOc1cc(C(=O)O)cc(OCC)c1-c1cn([C@@H](C)c2ccccn2)c2ncc(-c3c(C)noc3C)cc12` [P-0147, (S)-4-(5-(3,5-dimethylisoxazol-4-yl)-1-(1-(pyridin-2-yl)ethyl)-1H-pyrrolo[2,3-b]pyridin-3-yl)-3,5-diethoxybenzoic acid], the concentration for half-maximal inhibition (IC50) fell in the range of 0.1 to 1000 nM.

Regarding `CC[C@@H](c1ccccn1)n1cc(-c2cc(C(=O)O)ccc2Cl)c2ncc(-c3c(C)noc3C)cc21` [P-0148, (S)-4-chloro-3-(6-(3,5-dimethylisoxazol-4-yl)-1-(1-(pyridin-2-yl)propyl)-1H-pyrrolo[3,2-b]pyridin-3-yl)benzoic acid], the IC50 is 0.1 to 1000 nM.

Regarding `Cc1noc(C)c1-c1cc2c(cn1)c(CC1CCC1)cn2-c1c(Cl)cc(C(=O)O)cc1Cl` [P-0149, 3,5-dichloro-4-(3-(cyclobutylmethyl)-6-(3,5-dimethylisoxazol-4-yl)-1H-pyrrolo[3,2-c]pyridin-1-yl)benzoic acid], the IC50 lay in the range of 0.1 to 1000 nM.

Take `Cc1noc(C)c1-c1cnc2c(-c3ccccc3)cn(-c3c(Cl)cc(C(=O)O)cc3Cl)c2c1` [P-0150, 3,5-dichloro-4-(6-(3,5-dimethylisoxazol-4-yl)-3-phenyl-1H-pyrrolo[3,2-b]pyridin-1-yl)benzoic acid]: the IC50 lay in the range of 0.1 to 1000 nM.

In the case of `Cc1noc(C)c1-c1cnc2c(C3=CCOCC3)cn(-c3c(Cl)cc(C(=O)O)cc3Cl)c2c1` [P-0151, 3,5-dichloro-4-(3-(3,6-dihydro-2H-pyran-4-yl)-6-(3,5-dimethylisoxazol-4-yl)-1H-pyrrolo[3,2-b]pyridin-1-yl)benzoic acid], the IC50 was 0.1 to 1000 nM.

`COc1cc(C(=O)O)cc(OCC2CC2)c1-c1cn([C@@H](C)c2ccccn2)c2ncc(-c3c(C)noc3C)cc12` [P-0152, (S)-3-(cyclopropylmethoxy)-4-(5-(3,5-dimethylisoxazol-4-yl)-1-(1-(pyridin-2-yl)ethyl)-1H-pyrrolo[2,3-b]pyridin-3-yl)-5-methoxybenzoic acid]: the IC50 was in the range of 0.1 to 1000 nM.

Regarding `COc1cc(C(=O)O)cc(OCC(F)(F)F)c1-c1cn([C@@H](C)c2ccccn2)c2ncc(-c3c(C)noc3C)cc12` [P-0153, (S)-4-(5-(3,5-dimethylisoxazol-4-yl)-1-(1-(pyridin-2-yl)ethyl)-1H-pyrrolo[2,3-b]pyridin-3-yl)-3-methoxy-5-(2,2,2-trifluoroethoxy)benzoic acid], the IC50 lay within 0.1 to 1000 nM.

For the molecule `Cc1noc(C)c1-c1cnc2c(-c3ccc(C(=O)O)cc3)c(C(F)(F)F)n([C@@H](C)c3ccccn3)c2c1` [P-0154, (S)-4-(6-(3,5-dimethylisoxazol-4-yl)-1-(1-(pyridin-2-yl)ethyl)-2-(trifluoromethyl)-1H-pyrrolo[3,2-b]pyridin-3-yl)benzoic acid], the IC50 lay within 0.1 to 1000 nM.

As for `Cc1noc(C)c1-c1cnc2c(-c3ccccc3Cl)cn(C(C)(c3ccccn3)c3ccccn3)c2c1` [P-0155, 4-(3-(2-chloropheny1)-1-(1,1-di(pyridin-2-yl)ethyl)-1H-pyrrolo[3,2-b]pyridin-6-yl)-3,5-dimethylisoxazole], the IC50 lay within 0.1 to 1000 nM.

On to `Cc1noc(C)c1-c1cnc2c(c1)c(-c1ccc(C(=O)O)cc1OC(F)(F)F)cn2C(C1CC1)C1CC1` [P-0156, 4-(1-(dicyclopropylmethyl)-5-(3,5-dimethylisoxazol-4-yl)-1H-pyrrolo[2,3-b]pyridin-3-yl)-3-(trifluoromethoxy)benzoic acid], for which the IC50 was 0.1 to 1000 nM.
